Measured values as given in patent publication US20210322508A1, “PEPTIDES AND COMPOSITIONS FOR TARGETED TREATMENT AND IMAGING” (SIGNABLOK, INC., priority 2018, published 2021).
Residues, ends and D or L forms follow the SMILES beside them.

What was measured:
TREM-1 = molecular target: T1, TREM-1 (Mus musculus, UniProt Q9JKE2); assay: Immunofluorescence colocalization with TREM-1 in the cell membrane; type: cell-based; conditions: J774A.1; 6 h; Dylight 488-labeled, pre-incubated with HDL
T1 construct: endogenous in cells; host or cells: BALB/c murine macrophage cell line J774A.1 (ATCC)
Protocol: BALB/c murine macrophage J774A.1 cells were obtained from ATCC (Manassas, Va.) and cultured according to manufacturer's instructions at 37° C. in 6-well tissue culture plates containing glass coverslips until reaching about 50% confluency. Then, cells were incubated for 6 h at 37° C. either with rho B-labeled GF9-SLP that contained Dylight labeled GF9 or TREM-1/TRIOPEP-sSLP that contained Dylight 488-labeled GE31. In colocalization experiments, TREM-1 staining was performed using an Alexa 647-labeled rat anti-mouse TREM-1 antibody (Bio-Rad, Hercules, Calif.) as described in Shen and Sigalov. J Cell Mol Med 2017, 21:2524-2534. Coverslips were mounted using Prolong Gold anti-fade DAPI (4′,6-diamidino-2-phenylindole) mounting medium and photographed using an Olympus BX60 fluorescence microscope. Confocal imaging was performed using a Leica TCS SP5 II laser scanning confocal microscope as described in Shen and Sigalov. J Cell Mol Med 2017, 21:2524-2534.
BALB/c murine macrophage J774A.1 cells were grown at 37° C. in six-well tissue culture plates containing glass coverslips. […] ProLong Gold Antifade DAPI (4′,6′-diamidino-2-phenylindole) mounting medium was used to mount coverslips, and the slides were photographed using an Olympus BX60 fluorescence microscope. […]

[1] = tested on: C57BL/6J neonatal mice with oxygen-induced retinopathy; assay: Oxygen-induced retinopathy (OIR): pathological retinal neovascularization; type: in vivo
Protocol: Litters of C57BL/6J (Jackson Laboratory, Bar Harbor, Me.) neonatal mice and nursing dams were exposed to a hyperoxia environment (75% oxygen) from postnatal day 7 (P7) to P12 and returned to normoxia until P17. The hyperoxia exposure causes degeneration of the immature retinal vessels. […] Beginning on P7, mice were treated until day P17 by daily i.p. injections of GF9, GF9-SLP, TREM-1/TRIOPEP-sSLP or vehicle (phosphate-buffered saline, pH 7.4; PBS). […] In another subset of experiments, rho B-labeled Gd-containing sSLP were used to confirm the ability of these targeted SLP to cross the BRB in other species (rats and rabbits). In another subset of experiments, neonatal mice and nursing dams were not subjected to a hyperoxia environment and reared in room air (RA). […]
Treatment effects on vaso-obliteration and pathological angiogenesis were assessed by morphometric analysis of the avascular and neovascularization areas in retinal flat mounts after labeling with isolectin B4 as described in Patel, et al. Am J Pathol 2014, 184:3040-3051. […] After washing 3 times with PBS, the images were captured with a 20× lens using a Zeiss Axioplan2 fluorescence microscope (Carl Zeiss Meditec, Inc., Dublin, Calif.). Intravitreal neovascular formation and avascular area were measured as described in Connor, et al. Nat Protoc 2009, 4:1565-1573. […]

[2] = tested on: human pancreatic cancer PANC-1 xenograft; assay: PANC-1 xenograft mouse model, standalone and with GEM+ABX chemotherapy; type: in vivo
Protocol: Mice were implanted subcutaneously into the right flank with PANC-1 cells in equal parts of serum-free growth medium and Matrigel. Mice were monitored daily and tumor measurements were taken along the length and width using Vernier calipers twice weekly until sacrifice. Tumor volumes were calculated using a modified ellipsoidal formula: (Length×Width^2)/2. […] Body weight were measured. Mean tumor volumes were calculated. […] Survival was evaluated using Kaplan-Meier survival curves.

[3] = tested on: human pancreatic cancer xenografts (cancer mice); conditions: mouse, in vivo
Protocol: Treatment persisted for 31, 29 and 29 days for mice containing AsPC-1, BxPC-3 and Capan-1 tumor xenografts, respectively. Mean tumor volumes are calculated and plotted. All results are expressed as the mean±SEM (n=6 mice per group). On the final day of treatment, tumor volumes were compared between the drug-treated and control groups. **, p<0.01; ***, p<0.001; ****, p<0.0001 (versus vehicle).

T1 sequence (O54885 22-114 partner): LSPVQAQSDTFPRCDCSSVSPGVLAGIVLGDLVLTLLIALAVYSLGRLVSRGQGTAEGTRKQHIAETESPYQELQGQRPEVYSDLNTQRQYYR
T1 sequence (Q9JKE2 21-230): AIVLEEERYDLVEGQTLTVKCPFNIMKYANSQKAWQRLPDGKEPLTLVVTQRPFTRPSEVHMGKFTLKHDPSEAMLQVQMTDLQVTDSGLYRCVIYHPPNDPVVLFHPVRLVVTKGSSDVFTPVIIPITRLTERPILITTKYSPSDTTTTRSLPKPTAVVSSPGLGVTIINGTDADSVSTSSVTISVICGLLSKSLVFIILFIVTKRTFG

SMILES	self-insertion into the cell membrane and colocalization with TREM-1 (TREM-1)	reduction of pathological RNV ([1]; free peptides, daily i.p. P7-P17 at indicated doses)	survival, combined with GEM+ABX chemotherapy [2]	tumor growth, combined with GEM+ABX chemotherapy ([2]; GEM+ABX days 1, 4, 8, 11, 15)	tolerability in cancer mice [3]	toxicity / tolerability in mouse litters ([1]; mouse, in vivo)
CC(C)C[C@H](NC(=O)[C@H](Cc1ccccc1)NC(=O)CN)C(=O)N[C@@H](CO)C(=O)N[C@@H](CCCCN)C(=O)N[C@@H](CO)C(=O)N[C@@H](CC(C)C)C(=O)N[C@H](C(=O)N[C@@H](Cc1ccccc1)C(=O)N[C@@H](Cc1c[nH]c2ccccc12)C(=O)N[C@@H](CCC(N)=O)C(=O)N[C@@H](CCC(=O)O)C(=O)N[C@@H](CCC(=O)O)C(=O)N[C@@H](CC[S+](C)[O-])C(=O)N[C@@H](CCC(=O)O)C(=O)N[C@@H](CC(C)C)C(=O)N[C@@H](Cc1ccc(O)cc1)C(=O)N[C@@H](CCCNC(=N)N)C(=O)N[C@@H](CCC(N)=O)C(=O)N[C@@H](CCCCN)C(=O)N[C@H](C(=O)O)C(C)C)C(C)C (stereo partly drawn) [G-KV21] (HELM PEPTIDE1{G.F.L.S.K.S.L.V.F.W.Q.E.E.[CS(=O)CC[C@H](N[*:1])C(=O)[*:2]].E.L.Y.R.Q.K.V}$$$$V2.0)	self-inserts into the cell membrane and colocalizes with TREM-1	up to 95%	significantly improves survival	sensitizes the tumor to chemotherapy	–	–
CC(C)C[C@H](NC(=O)[C@H](Cc1ccccc1)NC(=O)CN)C(=O)N[C@@H](CO)C(=O)N[C@@H](CCCCN)C(=O)N[C@@H](CO)C(=O)N[C@@H](CC(C)C)C(=O)N[C@H](C(=O)N[C@@H](Cc1ccccc1)C(=O)O)C(C)C [GF9] (H-GFLSKSLVF-OH)	–	–	–	–	Non-Toxic	non-toxic and well-tolerated in mouse litters
